From ChEMBL document CHEMBL1131402, “Potent piperazine hydroxyethylamine HIV protease inhibitors containing novel P3 ligands” (Bioorg Med Chem Lett, 1998)

Experiments:
MT4 [1] = assay: Anti-HIV activity was determined in MT-4 cells in the presence of 50% human serum using cytopathic effect assay; NA means not active; assay type: functional, cell-based
MT4 [2] = assay: Cytotoxicity against MT-4 cells was determined by using cytopathic effect assay; NA means not active; assay type: functional, cell-based, Homo sapiens
[3] = biological target: Human immunodeficiency virus type 1 protease (Human immunodeficiency virus 1) (UniProt Q72874); assay: Compound was tested for the inhibition of HIV protease at 97 nM
MT4 [4] = assay: Anti-HIV activity was determined in MT-4 cells in the presence of 0% human serum using cytopathic effect assay; Not active; assay type: functional, cell-based
Cytochrome P450 3A4 = Cytochrome P450 3A4 (Homo sapiens, UniProt P08684); assay: […] inhibition of human liver microsomal Cytochrome P450 3A4; assay type: ADME
MT4 [5] = assay: Cytotoxicity against MT-4 cells was determined by using cytopathic effect assay; assay type: functional, Homo sapiens
[6] = system: Human immunodeficiency virus 1; assay: Anti-HIV activity was determined in MT-4 cells in the presence of 0% human serum using cytopathic effect assay; assay type: functional, organism-based; conditions: Human immunodeficiency virus 1, MT4
[7] = system: Human immunodeficiency virus 1; assay: Anti-HIV activity was determined in MT-4 cells in the presence of 50% human serum using cytopathic effect assay; assay type: functional, organism-based; conditions: Human immunodeficiency virus 1, MT4, Serum
[8] = biological target: Human immunodeficiency virus type 1 protease (Human immunodeficiency virus 1) (UniProt Q72874); assay: Inhibition of HIV protease at 0.5 nM
[9] = biological target: Human immunodeficiency virus type 1 protease (Human immunodeficiency virus 1) (UniProt Q72874); assay: Compound was tested for the inhibition of HIV protease at 27 nM
[10] = system: Human immunodeficiency virus 1; assay: Antiviral activity was assessed against I54I/V, A71V, V82A, L90L/M viral strains isolated from patient-235 pretreated with ritonavir (2 fold) at 36th week; assay type: functional, organism-based
[11] = system: Human immunodeficiency virus 1; assay: Antiviral activity was assessed against K20K/R, 36M/I, 154V, A71A/V, V82T viral strains isolated from patient-129 pretreated with ritonavir(7 fold) at 16th week; assay type: functional, organism-based
[12] = system: Human immunodeficiency virus 1; assay: Antiviral activity was assessed against M36I, I54V, A71V, V82T viral strains isolated from patient-129 pretreated with ritonavir(2 fold) at 8th week; assay type: functional, organism-based
[13] = system: Human immunodeficiency virus 1; assay: Antiviral activity was assessed against M36M/I, I54I/V, V82F/A/S/T viral strains isolated from patient-313 pretreated with ritonavir(3 fold) at 85th day; assay type: functional, organism-based
[14] = system: Human immunodeficiency virus 1; assay: Antiviral activity was assessed against M36M/I, V82F viral strains isolated from patient-313 pretreated with ritonavir(3 fold) at 57th day; assay type: functional, organism-based
[15] = system: Human immunodeficiency virus 1; assay: Antiviral activity was assessed against K20K/R, M36M/I, 154V/I, L63L/P, V82/A viral strains isolated from patient-131 pretreated with ritonavir(7 fold) at 28th week; assay type: functional, organism-based
[16] = biological target: Human immunodeficiency virus type 1 protease (Human immunodeficiency virus 1) (UniProt Q72874); assay: Compound was tested for the inhibition of HIV protease at 120 nM
[17] = system: Human immunodeficiency virus 1; assay: Antiviral activity was assessed against M36M/I, I54I/V, V82F/A/S/T viral strains isolated from patient-313 pretreated with ritonavir(14 fold) at 85th day; assay type: functional, organism-based
[18] = system: Human immunodeficiency virus 1; assay: Antiviral activity was assessed against I54I/V, A71V, V82A, L90L/M viral strains isolated from patient-235 pretreated with ritonavir (4 fold) at 36th week; assay type: functional, organism-based
[19] = system: Human immunodeficiency virus 1; assay: Antiviral activity was assessed against K20K/R, 36M/I, 154V, A71A/V, V82T viral strains isolated from patient-129 pretreated with ritonavir(33 fold) at 16th week; assay type: functional, organism-based
[20] = system: Human immunodeficiency virus 1; assay: Antiviral activity was assessed against K20K/R, M36M/I, 154V/I, L63L/P, V82/A viral strains isolated from patient-131 pretreated with ritonavir(20 fold) at 28th week; assay type: functional, organism-based
[21] = system: Human immunodeficiency virus 1; assay: Antiviral activity was assessed against M36I, I54V, A71V, V82T viral strains isolated from patient-129 pretreated with ritonavir(14 fold) at 8th week; assay type: functional, organism-based
[22] = system: Human immunodeficiency virus 1; assay: Antiviral activity was assessed against M36M/I, V82F viral strains isolated from patient-313 pretreated with ritonavir(9 fold) at 57th day; assay type: functional, organism-based

Sequence of Cytochrome P450 3A4 (P08684 whole entry): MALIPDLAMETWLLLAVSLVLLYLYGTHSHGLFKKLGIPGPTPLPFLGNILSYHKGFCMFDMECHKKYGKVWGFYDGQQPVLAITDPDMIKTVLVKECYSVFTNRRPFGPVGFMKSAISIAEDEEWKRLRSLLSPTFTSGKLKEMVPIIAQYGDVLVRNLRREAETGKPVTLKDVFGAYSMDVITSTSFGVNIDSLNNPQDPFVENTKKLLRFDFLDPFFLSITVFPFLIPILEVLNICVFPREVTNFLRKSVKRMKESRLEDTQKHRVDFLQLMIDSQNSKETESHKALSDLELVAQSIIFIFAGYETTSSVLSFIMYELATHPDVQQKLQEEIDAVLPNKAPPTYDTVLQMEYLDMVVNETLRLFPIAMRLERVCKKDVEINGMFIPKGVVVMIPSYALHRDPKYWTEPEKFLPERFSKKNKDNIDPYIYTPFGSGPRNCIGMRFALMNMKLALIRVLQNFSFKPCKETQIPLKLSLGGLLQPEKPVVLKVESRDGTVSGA

EC50 [6]	EC50 [7]	inhibition [8]	SMILES	CCIC50 (MT4 [5])	other results
			CC(C)[C@@H](NC(=O)N(C)Cc1cncs1)C(=O)N[C@@H](Cc1ccccc1)[C@H](O)CN1CCN(Cc2cncs2)C[C@H]1C(=O)NC(C)(C)C		EC50 (MT4 [1]): Not Active; EC50 (MT4 [2]): Not Active; inhibition [3]: 50%; EC50 (MT4 [4]): Not Active
5 nM	42 nM	69%	CC(C)c1nc(COC(=O)N[C@H](C(=O)N[C@@H](Cc2ccccc2)[C@H](O)CN2CCN(Cc3cccc4c3COC4)C[C@H]2C(=O)NC(C)(C)C)C(C)C)cs1	18 µM	IC50 (Cytochrome P450 3A4): 12 µM
11 nM	71 nM	50%	Cc1nc(COC(=O)N[C@H](C(=O)N[C@@H](Cc2ccccc2)[C@H](O)CN2CCN(Cc3ccc(F)cc3)C[C@H]2C(=O)NC(C)(C)C)C(C)C)cs1	39 µM	
17 nM	76 nM	73%	CC(C)c1nc(COC(=O)N[C@H](C(=O)N[C@@H](Cc2ccccc2)[C@H](O)CN2CCN(Cc3ccncc3)C[C@H]2C(=O)NC(C)(C)C)C(C)C)cs1	56 µM	
6000 nM	26000 nM		CC(C)c1nc(COC(=O)N[C@@H](C(=O)N[C@@H](Cc2ccccc2)[C@H](O)CN2CCN(Cc3cncs3)C[C@H]2C(=O)NC(C)(C)C)C(C)C)cs1	18 µM	inhibition [9]: 50%
12 nM	67 nM	67%	CC(C)c1nc(COC(=O)N[C@H](C(=O)N[C@@H](Cc2ccccc2)[C@H](O)CN2CCN(Cc3cncs3)C[C@H]2C(=O)NC(C)(C)C)C(C)C)cs1	57 µM	IC50 (Cytochrome P450 3A4): 15 µM
41 nM	242 nM	63%	COc1cc(CN2CCN(C[C@@H](O)[C@H](Cc3ccccc3)NC(=O)[C@@H](NC(=O)N(C)Cc3csc(C(C)C)n3)C(C)C)[C@H](C(=O)NC(C)(C)C)C2)ccc1O	20 µM	
22 nM	80 nM	61%	CC(C)c1nc(COC(=O)N[C@H](C(=O)N[C@@H](Cc2ccccc2)[C@H](O)CN2CCN(Cc3ccccc3)C[C@H]2C(=O)NC(C)(C)C)C(C)C)cs1	45 µM	
13 nM	84 nM	60%	CC(C)c1nc(CN(C)C(=O)N[C@H](C(=O)N[C@@H](Cc2ccccc2)[C@H](O)CN2CCN(Cc3cncs3)C[C@H]2C(=O)NC(C)(C)C)C(C)C)cs1	>100 µM	
19 nM	42 nM	82%	CCc1nc(COC(=O)N[C@H](C(=O)N[C@@H](Cc2ccccc2)[C@H](O)CN2CCN(Cc3ccc(OC)c(OC)c3)C[C@H]2C(=O)NC(C)(C)C)C(C)C)cs1	45 µM	
16 nM	132 nM	37%	CCc1ncc(COC(=O)N[C@H](C(=O)N[C@@H](Cc2ccccc2)[C@H](O)CN2CCN(Cc3ccc(OC)c(OC)c3)C[C@H]2C(=O)NC(C)(C)C)C(C)C)s1	50 µM	IC50 (Cytochrome P450 3A4): 35 µM
40 nM	142 nM	53%	CC(C)c1nc(COC(=O)N[C@H](C(=O)N[C@@H](Cc2ccccc2)[C@H](O)CN2CCN(Cc3cccc(O)c3)C[C@H]2C(=O)NC(C)(C)C)C(C)C)cs1	17 µM	
259 nM	211 nM	50%	CC(C)[C@H](NC(=O)N(C)Cc1cncs1)C(=O)N[C@@H](Cc1ccccc1)[C@H](O)CN1CCN(Cc2cncs2)C[C@H]1C(=O)NC(C)(C)C	>100 µM	
47 nM	226 nM	54%	CC(C)c1nc(COC(=O)N[C@H](C(=O)N[C@@H](Cc2ccccc2)[C@H](O)CN2CCN(Cc3ccc(O)cc3)C[C@H]2C(=O)NC(C)(C)C)C(C)C)cs1	19 µM	
57 nM	75 nM	45%	CC(C)[C@H](NC(=O)OCc1cncs1)C(=O)N[C@@H](Cc1ccccc1)[C@H](O)CN1CCN(Cc2cncs2)C[C@H]1C(=O)NC(C)(C)C	>100 µM	
11 nM	74 nM	45%	Cc1nc(COC(=O)N[C@H](C(=O)N[C@@H](Cc2ccccc2)[C@H](O)CN2CCN(Cc3ccc4c(c3)OCO4)C[C@H]2C(=O)NC(C)(C)C)C(C)C)cs1	56 µM	
17 nM	46 nM	62%	COc1ccc(CN2CCN(C[C@@H](O)[C@H](Cc3ccccc3)NC(=O)[C@@H](NC(=O)OCc3csc(C(C)C)n3)C(C)C)[C@H](C(=O)NC(C)(C)C)C2)cc1OC	18 µM	
3000 nM	7000 nM		CC(C)[C@@H](NC(=O)N(C)Cc1cncs1)C(=O)N[C@@H](Cc1ccccc1)[C@H](O)CN1CCN(Cc2ccccc2)C[C@H]1C(=O)NC(C)(C)C	56 µM	inhibition [16]: 50%
17 nM	104 nM	40%	CC(C)[C@H](NC(=O)OCc1cncs1)C(=O)N[C@@H](Cc1ccccc1)[C@H](O)CN1CCN(Cc2ccccc2)C[C@H]1C(=O)NC(C)(C)C	53 µM	
10 nM	42 nM	49%	COc1ccc(CN2CCN(C[C@@H](O)[C@H](Cc3ccccc3)NC(=O)[C@@H](NC(=O)OCc3csc(C)n3)C(C)C)[C@H](C(=O)NC(C)(C)C)C2)cc1OC	57 µM	IC50 (Cytochrome P450 3A4): 120 µM
11 nM	59 nM	44%	COc1ccc(CN2CCN(C[C@@H](O)[C@H](Cc3ccccc3)NC(=O)[C@@H](NC(=O)OCc3cnc(C)s3)C(C)C)[C@H](C(=O)NC(C)(C)C)C2)cc1OC	53 µM	
17 nM	86 nM	51%	COc1ccc(CN2CCN(C[C@@H](O)[C@H](Cc3ccccc3)NC(=O)[C@@H](NC(=O)OCc3cnc(C(C)C)s3)C(C)C)[C@H](C(=O)NC(C)(C)C)C2)cc1OC	21 µM	
12 nM	67 nM	69%	CC(C)c1nc(COC(=O)N[C@H](C(=O)N[C@@H](Cc2ccccc2)[C@H](O)CN2CCN(Cc3cccnc3)C[C@H]2C(=O)NC(C)(C)C)C(C)C)cs1	59 µM	IC50 (Cytochrome P450 3A4): 2.3 µM
48 nM	306 nM	66%	CC(C)c1nc(CN(C)C(=O)N[C@H](C(=O)N[C@@H](Cc2ccccc2)[C@H](O)CN2CCN(Cc3ccccc3)C[C@H]2C(=O)NC(C)(C)C)C(C)C)cs1	56 µM	
21 nM	174 nM	64%	CC(C)c1nc(COC(=O)N[C@H](C(=O)N[C@@H](Cc2ccccc2)[C@H](O)CN2CCN(Cc3ccc(F)cc3)C[C@H]2C(=O)NC(C)(C)C)C(C)C)cs1	15 µM	
46 nM	1060 nM	65%	CC(C)c1nc(COC(=O)N[C@H](C(=O)N[C@@H](Cc2ccccc2)[C@H](O)CN2CCN(Cc3nc4ccccc4[nH]3)C[C@H]2C(=O)NC(C)(C)C)C(C)C)cs1	18 µM	

SMILES	EC50 [6]	EC50 [7]	inhibition [8]	CCIC50 (MT4 [5])	other results
CC(C)c1nc(COC(=O)N[C@H](C(=O)N[C@@H](Cc2ccccc2)[C@H](O)CN2CCN(Cc3ccc4c(c3)OCO4)C[C@H]2C(=O)NC(C)(C)C)C(C)C)cs1	7 nM	40 nM	60%	13 µM	IC50 (Cytochrome P450 3A4): 9.6 µM; EC50 [10]: 24 nM; EC50 [11]: 33 nM; EC50 [12]: 10 nM; EC50 [13]: 27 nM; EC50 [14]: 24 nM; EC50 [15]: 29 nM
CC(C)c1nc(CN(C)C(=O)N[C@H](C(=O)N[C@@H](Cc2ccccc2)C[C@H](O)[C@H](Cc2ccccc2)NC(=O)OCc2cncs2)C(C)C)cs1 [RITONAVIR]	70 nM	810 nM		56 µM	EC50 [17]: 575 nM; EC50 [18]: 87 nM; EC50 [19]: 368 nM; EC50 [20]: 365 nM; EC50 [21]: 149 nM; EC50 [22]: 340 nM
